These results are taken from US7442841B2, “Extraction process” (Invista North America S.A R.L., priority 2006, dated 2008).

Series [1] in a line: Liquid-liquid separation of cyclohexanol from cyclohexane, distribution coefficient by gas chromatography. Type of series: physicochemical. Particulars: for Cyclohexanol D (distribution coefficient): concentration in extracting solvent phase divided by concentration in cyclohexane phase, 1 mL stock solution + 1 mL extracting solvent; for Cyclohexanol Log D: extracting solvent/cyclohexane, equal volumes. Here is the method: The distribution coefficient for the separation was then calculated.

Series [2] in a line: Liquid-liquid separation of cyclohexanone from cyclohexane, distribution coefficient by gas chromatography. Particulars: for Cyclohexanone D (distribution coefficient): concentration in extracting solvent phase divided by concentration in cyclohexane phase, 1 mL stock solution + 1 mL extracting solvent; for Cyclohexanone Log D: extracting solvent/cyclohexane, equal volumes.
Procedure: As used herein, the term “distribution coefficient” referring to the liquid-liquid separation refers to the concentration of the separable component in the ionic liquid-based phase divided by the concentration of the separable component in the non-polar solvent-based phase. These concentrations are measured subsequent to settling, i.e. when the separation mixture has reached equilibrium subsequent to the vigorous shaking.
The general method used for all the examples was as follows.
Stock solution; 250 mg cyclohexanol (Molecular Weight=100 gmol^−1) and 250 mg cyclohexanone (Molecular Weight=98 gmol^−1) in 10 g of cyclohexane (Molecular Weight=84 gmol^−1).
Method: add 1 mL (0.8 g) of stock solution (20 mg each of cyclohexanol and cyclohexanone) to 1 mL of ionic liquid and shake vigorously. After settling time and complete phase separation, 3 drops of the top layer were added to a vial and filled with ethylene chloride. Gas chromatography analysis was used to provide the number of moles of the separable component in each liquid phase. The distribution coefficient for the separation was then calculated.
Series [3] in a line: Extraction of 2-octanone from octane, IL/Octane distribution coefficient. It is filed as physicochemical. Particulars: concentration of substrate in IL divided by concentration in octane. Here is the method:
(§1) A corresponding set of experiments was conducted to study the extraction of octanol and 2-octanone from octane using ionic liquids. The results are presented in Table 2 below, in which the IL/Octane distribution coefficient is calculated as the concentration of substrate in IL divided by the concentration of substrate in octane.

The nature of series [4]: Extraction of octanol from octane, IL/Octane distribution coefficient. Type of series: physicochemical. Particulars: concentration of substrate in IL divided by concentration in octane. Here is the method: as §1

For the compound `C[S+](C)[O-]` [Example 14, dimethyl sulfoxide, reference compound], in series [1], the “Cyclohexanol D (distribution coefficient)” value (“Cyclohexanol D” below) turned out to be 24.79 and the “Cyclohexanol Log D” value is reported as 1.39. For the same compound, in series [2], the “Cyclohexanone D (distribution coefficient)” value (“Cyclohexanone D” below) is recorded as 2.80 and the “Cyclohexanone Log D” value turned out to be 0.45.
As to `O` [Example 1, H2O, reference compound], in series [1], the “Cyclohexanol D” value stood at 0.86 and the “Cyclohexanol Log D” value was −0.07. In series [2], the “Cyclohexanone D” value worked out at 0.34 and the “Cyclohexanone Log D” value is given as −0.47.
Consider `CCCC[N+]1(C)CCCC1` [Example 7], for which, in series [1], the “Cyclohexanol D” value is 5.12 and the “Cyclohexanol Log D” value worked out at 0.71. Also, the “Cyclohexanone D” value in series [2] is on record as 5.00.
As for `Br.CCCC[n+]1ccn(C)c1` [Example 17], the “IL/Octane distribution coefficient 2-Octanone” value in series [3] is 0.16. For the same compound, the “IL/Octane distribution coefficient Octanol” value in series [4] amounted to 1.44.
On the same counts, the results for `CCCCn1cc[n+](C)c1` [Example 15] are 2.08 and 1.06.
Take `C[N+](C)(C)CCO` [Example 5]: in series [1], the “Cyclohexanol D” value amounted to 2.91 and the “Cyclohexanol Log D” value amounted to 0.46. In series [2], the “Cyclohexanone D” value was 3.00 and the “Cyclohexanone Log D” value amounted to 0.478.
`CC[n+]1ccccc1` [Example 2]: in series [1], the “Cyclohexanol D” value is 1.60 and the “Cyclohexanol Log D” value came out at 0.20. Besides, the “Cyclohexanone D” value in series [2] is 3.40.
Consider `C[S+](C)[O-]` [Example 19, dimethyl sulfoxide, reference compound], for which the “IL/Octane distribution coefficient 2-Octanone” value in series [3] was determined as 0.89. The “IL/Octane distribution coefficient Octanol” value in series [4] turned out to be 7.67.
In the case of `CCCCn1cc[n+](C)c1` [Example 4], the “Cyclohexanol D” value in series [1] was found to be 2.32. The “Cyclohexanone D” value in series [2] came to 1.51.
As for `C[N+]1(CCCCS(=O)(=O)O)CCCC1` [Example 8], in series [1], the “Cyclohexanol D” value is reported as 5.96 and the “Cyclohexanol Log D” value amounted to 0.78. In series [2], the “Cyclohexanone D” value is given as 0.21.
For `CCCC[n+]1ccn(C)c1` [Example 3], the “Cyclohexanol D” value in series [1] was determined as 1.77. Also, the “Cyclohexanone D” value in series [2] is recorded as 2.11.
On the same counts, the results for `CCCCn1cc[n+](C)c1` [Example 6] are 4.10 and 4.38.
